Measurements published in PubChem BioAssay AID1963978 (Molecular Pharmacology Branch, DTP, NCI, 2024).
pIC50: −log10 of the molar value.

System: 616215-338-R-J1-PDC spheroids with HUVEC/MSC, viability
Experiment: Anticancer human tumor 616215-338-R-J1-PDC patient-derived colon adenocarcinoma cell line growth inhibition [PI3K]
Conditions: for viability, T/C: stronger effect = lower value
Summary of the method: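 Combination activity was assessed by viability in multicellular tumor spheroids carrying HUVEC and MSC components. Agents were tested with PI3K inhibitors from a Cmax-based top dose (or 10 microM) downward in half-log increments.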

[1] = curve of first compound, second compound 0.0316 µM
[2] = curve of first compound, second compound 0.1 µM
[3] = curve of first compound, second compound 0.316 µM
[4] = curve of first compound, second compound 1 µM
[5] = second compound 0.0316 µM, first compound 0.00949 µM
[6] = second compound 0.0316 µM, first compound 0.03 µM
[7] = second compound 0.0316 µM, first compound 0.0949 µM
[8] = second compound 0.0316 µM, first compound 0.3 µM
[9] = second compound 0.0316 µM, first compound 0.949 µM
[10] = second compound 0.0316 µM, first compound 3 µM
[11] = second compound 0.1 µM, first compound 0.00949 µM
[12] = second compound 0.1 µM, first compound 0.03 µM
[13] = second compound 0.1 µM, first compound 0.0949 µM
[14] = second compound 0.1 µM, first compound 0.3 µM
[15] = second compound 0.1 µM, first compound 0.949 µM
[16] = second compound 0.1 µM, first compound 3 µM
[17] = second compound 0.316 µM, first compound 0.00949 µM
[18] = second compound 0.316 µM, first compound 0.03 µM
[19] = second compound 0.316 µM, first compound 0.0949 µM
[20] = second compound 0.316 µM, first compound 0.3 µM
[21] = second compound 0.316 µM, first compound 0.949 µM
[22] = second compound 0.316 µM, first compound 3 µM
[23] = second compound 1 µM, first compound 0.00949 µM
[24] = second compound 1 µM, first compound 0.03 µM
[25] = second compound 1 µM, first compound 0.0949 µM
[26] = second compound 1 µM, first compound 0.3 µM
[27] = second compound 1 µM, first compound 0.949 µM
[28] = second compound 1 µM, first compound 3 µM
[29] = curve of first compound, second compound 3.16 µM
[30] = curve of first compound, second compound 10 µM
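Also: spheroids exposed to agents for seven days before the viability read.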

**Q.** Which results are given for `Cn1cnc2c(F)c(Nc3ccc(Br)cc3Cl)c(C(=O)NOCCO)cc21` + COc1c(OCCCN2CCOCC2)ccc2c3n(c(=NC(=O)c4cnc(N)nc4)nc12)CCN3?
**A.** pIC50 (curve of first compound, second compound 0.00316 µM): 5.65; pIC50 (curve of first compound, second compound 0.01 µM): 5.87; pIC50 [1]: 6.09; pIC50 [2]: 6.38; pIC50 [3]: > 8.02; pIC50 [4]: > 8.02; viability, T/C (second compound 0.00316 µM, first compound 0.00949 µM): 93.6%; viability, T/C (second compound 0.00316 µM, first compound 0.03 µM): 99.3%; viability, T/C (second compound 0.00316 µM, first compound 0.0949 µM): 91.1%; viability, T/C (second compound 0.00316 µM, first compound 0.3 µM): 83.3%; viability, T/C (second compound 0.00316 µM, first compound 0.949 µM): 72.8%; viability, T/C (second compound 0.00316 µM, first compound 3 µM): 41.9%; viability, T/C (second compound 0.01 µM, first compound 0.00949 µM): 99.3%; viability, T/C (second compound 0.01 µM, first compound 0.03 µM): 95%; viability, T/C (second compound 0.01 µM, first compound 0.0949 µM): 85.4%; viability, T/C (second compound 0.01 µM, first compound 0.3 µM): 86.5%; viability, T/C (second compound 0.01 µM, first compound 0.949 µM): 54.5%; viability, T/C (second compound 0.01 µM, first compound 3 µM): 38.1%; viability, T/C [5]: 99.3%; viability, T/C [6]: 94.8%; viability, T/C [7]: 73.7%; viability, T/C [8]: 76.3%; viability, T/C [9]: 42.5%; viability, T/C [10]: 24.7%; viability, T/C [11]: 94%; viability, T/C [12]: 86.7%; viability, T/C [13]: 76.1%; viability, T/C [14]: 58.6%; viability, T/C [15]: 30.9%; viability, T/C [16]: 13.2%; viability, T/C [17]: 37.6%; viability, T/C [18]: 47.4%; viability, T/C [19]: 36.9%; viability, T/C [20]: 24.9%; viability, T/C [21]: 11.7%; viability, T/C [22]: 1.63%; viability, T/C [23]: 22.2%; viability, T/C [24]: 12.8%; viability, T/C [25]: 6.6%; viability, T/C [26]: 2.1%; viability, T/C [27]: 0.32%; viability, T/C [28]: 0.32%

**Q.** What does the source list for `Cn1cnc2c(F)c(Nc3ccc(Br)cc3Cl)c(C(=O)NOCCO)cc21` + CC(Nc1ncnc2nc[nH]c12)c1cc2cccc(Cl)c2c(=O)n1-c1ccccc1?
**A.** pIC50 [1]: 5.82; pIC50 [2]: 5.81; pIC50 [3]: 5.72; pIC50 [4]: 5.76; pIC50 [29]: 5.90; pIC50 [30]: 6.29; viability, T/C [5]: 94.3%; viability, T/C [6]: 100%; viability, T/C [7]: 89.7%; viability, T/C [8]: 75.8%; viability, T/C [9]: 59.9%; viability, T/C [10]: 37.5%; viability, T/C [11]: 108%; viability, T/C [12]: 96.5%; viability, T/C [13]: 89%; viability, T/C [14]: 77.6%; viability, T/C [15]: 51.8%; viability, T/C [16]: 43.8%; viability, T/C [17]: 95.2%; viability, T/C [18]: 90.5%; viability, T/C [19]: 86.5%; viability, T/C [20]: 70.2%; viability, T/C [21]: 59.6%; viability, T/C [22]: 44.4%; viability, T/C [23]: 98.6%; viability, T/C [24]: 90.8%; viability, T/C [25]: 87.6%; viability, T/C [26]: 84.6%; viability, T/C [27]: 63%; viability, T/C [28]: 36.9%; viability, T/C (second compound 3.16 µM, first compound 0.00949 µM): 102%; viability, T/C (second compound 3.16 µM, first compound 0.03 µM): 96.3%; viability, T/C (second compound 3.16 µM, first compound 0.0949 µM): 83.3%; viability, T/C (second compound 3.16 µM, first compound 0.3 µM): 76.5%; viability, T/C (second compound 3.16 µM, first compound 0.949 µM): 55%; viability, T/C (second compound 3.16 µM, first compound 3 µM): 32.5%; viability, T/C (second compound 10 µM, first compound 0.00949 µM): 117%; viability, T/C (second compound 10 µM, first compound 0.03 µM): 99.1%; viability, T/C (second compound 10 µM, first compound 0.0949 µM): 93.3%; viability, T/C (second compound 10 µM, first compound 0.3 µM): 52.5%; viability, T/C (second compound 10 µM, first compound 0.949 µM): 41%; viability, T/C (second compound 10 µM, first compound 3 µM): 6.44%

**Q.** Which viability, T/C (compound 0.0316 µM) does the source give for `C[C@@H](NC(=O)c1ncnc(N)c1Cl)c1ncc(C(=O)Nc2cc(C(F)(F)F)c(Cl)cn2)s1` here?
**A.** 103% [middle of 4 runs]

**Q.** And the viability, T/C (compound 0.1 µM)?
**A.** 92.3% [middle of 4 runs]

**Q.** And the viability, T/C (compound 0.316 µM)?
**A.** 112% [middle of 4 runs]

**Q.** What about the viability, T/C (compound 1 µM) of the same compound?
**A.** 106% [middle of 4 runs]

**Q.** What about the viability, T/C (compound 3.16 µM) of the same compound?
**A.** 109% [middle of 4 runs]

**Q.** What about the viability, T/C (compound 10 µM) of the same compound?
**A.** 86.8% [middle of 4 runs]

**Q.** And the pIC50 (curve of compound)?
**A.** < 5.00

**Q.** With `CC1(C)CCC(CN2CCN(c3ccc(C(=O)NS(=O)(=O)c4ccc(NCC5CCOCC5)c([N+](=O)[O-])c4)c(Oc4cnc5[nH]ccc5c4)c3)CC2)=C(c2ccc(Cl)cc2)C1` as the compound, how does the viability, T/C (compound 0.1 µM) read?
**A.** 99.5% [middle of 4 runs]

**Q.** What about the viability, T/C (compound 0.316 µM) of the same compound?
**A.** 96.5% [middle of 4 runs]

**Q.** What about the viability, T/C (compound 1 µM) of the same compound?
**A.** 96.4% [middle of 4 runs]

**Q.** And the viability, T/C (compound 3.16 µM)?
**A.** 77.8% [middle of 4 runs]

**Q.** What does the source list for `C[C@@H](NC(=O)c1ncnc(N)c1Cl)c1ncc(C(=O)Nc2cc(C(F)(F)F)c(Cl)cn2)s1` + CC(Nc1ncnc2nc[nH]c12)c1cc2cccc(Cl)c2c(=O)n1-c1ccccc1?
**A.** pIC50 [1]: < 5.00; pIC50 [2]: < 5.00; pIC50 [3]: < 5.00; pIC50 [4]: < 5.00; pIC50 [29]: < 5.00; pIC50 [30]: 5.01; viability, T/C (second compound 0.0316 µM, first compound 0.0316 µM): 100%; viability, T/C (second compound 0.0316 µM, first compound 0.1 µM): 115%; viability, T/C (second compound 0.0316 µM, first compound 0.316 µM): 105%; viability, T/C (second compound 0.0316 µM, first compound 1 µM): 105%; viability, T/C (second compound 0.0316 µM, first compound 3.16 µM): 114%; viability, T/C (second compound 0.0316 µM, first compound 10 µM): 88.5%; viability, T/C (second compound 0.1 µM, first compound 0.0316 µM): 99.7%; viability, T/C (second compound 0.1 µM, first compound 0.1 µM): 101%; viability, T/C (second compound 0.1 µM, first compound 0.316 µM): 97%; viability, T/C (second compound 0.1 µM, first compound 1 µM): 118%; viability, T/C (second compound 0.1 µM, first compound 3.16 µM): 105%; viability, T/C (second compound 0.1 µM, first compound 10 µM): 90.5%; viability, T/C (second compound 0.316 µM, first compound 0.0316 µM): 112%; viability, T/C (second compound 0.316 µM, first compound 0.1 µM): 105%; viability, T/C (second compound 0.316 µM, first compound 0.316 µM): 101%; viability, T/C (second compound 0.316 µM, first compound 1 µM): 110%; viability, T/C (second compound 0.316 µM, first compound 3.16 µM): 99%; viability, T/C (second compound 0.316 µM, first compound 10 µM): 74.6%; viability, T/C (second compound 1 µM, first compound 0.0316 µM): 104%; viability, T/C (second compound 1 µM, first compound 0.1 µM): 106%; viability, T/C (second compound 1 µM, first compound 0.316 µM): 104%; viability, T/C (second compound 1 µM, first compound 1 µM): 96.6%; viability, T/C (second compound 1 µM, first compound 3.16 µM): 113%; viability, T/C (second compound 1 µM, first compound 10 µM): 64.8%; viability, T/C (second compound 3.16 µM, first compound 0.0316 µM): 95.9%; viability, T/C (second compound 3.16 µM, first compound 0.1 µM): 103%; viability, T/C (second compound 3.16 µM, first compound 0.316 µM): 104%; viability, T/C (second compound 3.16 µM, first compound 1 µM): 98.4%; viability, T/C (second compound 3.16 µM, first compound 3.16 µM): 99.4%; viability, T/C (second compound 3.16 µM, first compound 10 µM): 67.2%; viability, T/C (second compound 10 µM, first compound 0.0316 µM): 95.4%; viability, T/C (second compound 10 µM, first compound 0.1 µM): 113%; viability, T/C (second compound 10 µM, first compound 0.316 µM): 98.8%; viability, T/C (second compound 10 µM, first compound 1 µM): 98.5%; viability, T/C (second compound 10 µM, first compound 3.16 µM): 88.5%; viability, T/C (second compound 10 µM, first compound 10 µM): 48.4%
